According to patent publication US20220242856A1, “CANNABINOID DERIVATIVES” (CANOPY GROWTH CORPORATION, priority 2019, published 2022):

Assays:
human CB1 receptor [1] = molecular target: T1, human CB1 receptor (Homo sapiens, UniProt P21554); assay: CB1 radioligand competitive binding assay ([3H]CP 55,940 displacement); conditions: for Selectivity CB1: fold difference in selectivity between CB1 and CB2 binding, printed in the column of the receptor with higher affinity, 1.00 = about the same affinity
T1 construct: host or cells: CHO-K1
T1 sequence (P21554 whole entry): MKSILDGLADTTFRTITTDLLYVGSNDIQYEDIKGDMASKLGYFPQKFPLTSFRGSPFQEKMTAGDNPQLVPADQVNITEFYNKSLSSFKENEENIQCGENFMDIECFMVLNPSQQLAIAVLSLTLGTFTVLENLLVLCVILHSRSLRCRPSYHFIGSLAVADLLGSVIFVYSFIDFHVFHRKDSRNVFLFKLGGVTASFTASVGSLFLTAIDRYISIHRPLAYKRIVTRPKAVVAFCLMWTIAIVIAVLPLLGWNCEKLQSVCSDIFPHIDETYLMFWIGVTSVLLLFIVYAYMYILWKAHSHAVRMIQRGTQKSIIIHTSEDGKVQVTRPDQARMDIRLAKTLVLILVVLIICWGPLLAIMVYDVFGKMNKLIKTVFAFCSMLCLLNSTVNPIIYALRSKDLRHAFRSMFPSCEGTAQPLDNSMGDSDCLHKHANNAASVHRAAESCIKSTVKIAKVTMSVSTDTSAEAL

human CB1 receptor [2] = molecular target: T1, human CB1 receptor; assay: PathHunter β-arrestin functional assay, CB1 receptor, agonist mode; assay type: cell-based; conditions: PathHunter CHO-K1 CNR1 β-Arrestin cells; normalized to CP55,940
From the text: (§1) In the PathHunter® β-Arrestin system from DiscoveRx (Eurofins, Fremont, Calif.), a small peptide, the ProLink™ (PK), is fused to the intracellular sequence of a GPCR target, and a complementing peptide, the enzyme acceptor (EA) fragment, is fused to β-arrestin. After binding to its specific ligand, the GPCR target recruits β-arrestin, forcing the complementation of the two β-galactosidase enzyme fragments (EA and PK) to produce a functional β-galactosidase enzyme. The enzyme activity, and thus the amount of ligand bound to the GPCR, is detected with a single addition of a reagent cocktail to lyse the cells and produce a chemiluminescent signal before being analyzed using a traditional plate reader.
(§2) PathHunter® CHO-K1 CNR1 β-Arrestin cells (DiscoverRx, cat. Number 93-0959C2) stably expressing CB1 receptor (CB1R) were grown in Ham's F12 medium containing 10% fetal bovine serum (FBS), 1% penicillin/streptomycin, 300 μg/mL Hygromycin B and 800 μg/mL geneticin (G418) and maintained in 37° C. incubators at 5% CO2. […]
(§3) The incubation was terminated by adding the detection reagent (19 parts of 1% CHAPS, 5 parts Emerald-II and 1 part Galacton-Star), equivalent to 50% of the assay volume to each wells. Plates were incubated for 1 hour in the dark at room temperature, followed by chemiluminescence detection using a microplate reader.
(§4) Data were analysed by generating nonlinear regression curves. […]

human CB1 receptor [3] = molecular target: T1, human CB1 receptor; assay: PathHunter β-arrestin functional assay, CB1 receptor, antagonist mode; assay type: cell-based
From the text: as §1, §2, §3, §4

human CB2 receptor = molecular target: T2, human CB2 receptor (Homo sapiens, UniProt P34972); assay: CB2 radioligand competitive binding assay ([3H]CP 55,940 displacement); conditions: for Selectivity CB2: fold difference in selectivity between CB1 and CB2 binding, printed in the column of the receptor with higher affinity, 1.00 = about the same affinity
T2 construct: host or cells: CHO-K1
T2 sequence (P34972 whole entry): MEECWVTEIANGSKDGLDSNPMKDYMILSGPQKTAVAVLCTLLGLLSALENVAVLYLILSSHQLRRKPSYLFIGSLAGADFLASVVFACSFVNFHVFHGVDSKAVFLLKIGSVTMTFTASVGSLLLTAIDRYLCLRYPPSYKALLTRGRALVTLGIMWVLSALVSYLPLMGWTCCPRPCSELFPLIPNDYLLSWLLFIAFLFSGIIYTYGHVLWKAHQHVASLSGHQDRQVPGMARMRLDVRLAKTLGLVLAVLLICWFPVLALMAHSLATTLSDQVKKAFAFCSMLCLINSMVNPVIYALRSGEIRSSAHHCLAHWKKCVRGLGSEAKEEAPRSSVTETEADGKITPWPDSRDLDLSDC
Protocol: Compounds of the present disclosure were tested for CB1 receptor binding affinity and for CB2 receptor binding affinity. As used herein, “binding affinity” is represented by the IC50 value, which was experimentally determined as described herein. The lower the IC50 value the higher the binding affinity. A compound of the present disclosure may be said to have “binding selectivity” if it has a higher binding affinity for one receptor compared to the other.
The membranes were prepared from CHO-K1 (Chinese hamster ovary) cells stably transfected with the human CB2 receptor (Cat.# ES-111-C; Perkin Elmer, Boston, Mass.). The cells were grown adherently and maintained in Ham's F12 medium containing 10% fetal bovine serum (FBS), penicillin, streptomycin and geneticin (G418) at 37° C. in a humid atmosphere of 5% CO2 following the manufacturer's instructions.
For membrane preparation the cells were washed with PBS and scraped off the plates in cold homogenization buffer (25 mM HEPES (pH 7.4), 2 mM EDTA) containing protease inhibitor cocktail (Sigma Cat.# P8340). The cell suspension was homogenized with a Pro-PK-01200D Polytron Homogenizer (Pro Scientific) and then centrifuged for 30 min at 120,000×g. The supernatant was discarded and the pellet was re-suspended in the homogenization buffer and stored at −80° C. until the time of use.
In this experiment, 3H radiolabeled CP 55,940, i.e. [3H]CP 55,940 (Perkin Elmer, Boston, Mass.), was used as a radioligand for the CB2 receptor to determine the binding affinity of compounds for the CB2 receptor (Scheme 7; above).
The competition binding experiments (single dose and dose-response) were performed by incubating 0.6 nM of [3H]CP55,940 (specific activity 101 Ci/mmol, Perkin Elmer) and different concentrations of compounds disclosed herein with membranes prepared as above from CHO-K1 cells expressing human CB2 receptor (1 μg of protein/well), 50 mM Tris-HCl (pH 7.4), 5 mM MgCl2, 1 mM CaCl2, and 2 mg/mL BSA.
For the single dose experiments, the compound stocks (usually 10 mM in DMSO) were diluted to working stocks in the binding buffer to give the final compound concentrations of 10 μM and 1 μM. For the dose-response experiments the test compounds were sequentially diluted to provide the desired concentration range for the IC50 determination. In each case the compounds were pre-incubated with the membrane for 20 min, before adding the radioligand.
After incubation with the radioligand for 60 min at 37° C., the incubation was terminated by rapid filtration of assay mixture through MultiScreen®HTS^+ 96-well filter plates (Millipore, Cat.# MSFCNXB), pre-soaked for 60 min with 50 mM Tris-HCl (pH 7.4) containing 0.33% polyethylenimine (PEI). The nonspecific binding (NSB) was determined in the presence of 10 μM unlabelled CP55,940. After drying the filter plate at 50° C. for at least 60 min, the filter-bound radioactivity was determined by scintillation spectrometry using the 1450 MicroBeta Plate Counter (Perkin Elmer, Boston, Mass.). From the dose-response experiments, the IC50 values were determined (see Table 1, CB2 IC50).

Row | SMILES | IC50 (human CB1 receptor [1]) | activity towards the human CB1 receptor, agonist mode (human CB1 receptor [2]) | IC50 (human CB1 receptor [3]) | IC50 (human CB2 receptor) | Selectivity CB2 (human CB2 receptor) | Selectivity CB1 (human CB1 receptor [1])
1 | CCCCCc1cc2c(c(O)c1-c1cc3ccccc3s1)[C@@H]1C=C(C)CC[C@H]1C(C)(C)O2 [Compound 36b, 2-(benzothiophen-2-yl)-6,6,9-trimethyl-3-pentyl-6a,7,8,10a-tetrahydrobenzo[c]chromen-1-ol] | > 1000 nM | minimal to no activity | ~3 µM | 100 to 490 nM | 5.67 fold | –
2 | CCCCCc1cc2c(c(O)c1-c1cncnc1)[C@@H]1C=C(C)CC[C@H]1C(C)(C)O2 [Compound 13b, 6,6,9-trimethyl-3-pentyl-2-(pyrimidin-5-yl)-6a,7,8,10a-tetrahydro-6H-benzo [c] chromen-1-ol] | > 1000 nM | – | – | 500 to 990 nM | 5.00 fold | –
3 | CCCCCc1cc2c(c(O)c1-c1cccnc1)[C@@H]1C=C(C)CC[C@H]1C(C)(C)O2 [Compound 12b, 6,6,9-trimethyl-3-pentyl-2-(pyridin-3-yl)-6a,7,8,10a-tetrahydro-6H-benzo[c]chromen-1-ol] | 500 to 990 nM | minimal to no activity | – | 500 to 990 nM | 1.57 fold | –
4 | CCCCCc1cc2c(c(O)c1-c1ccncc1)[C@@H]1C=C(C)CC[C@H]1C(C)(C)O2 [Compound 14b, 6,6,9-trimethyl-3-pentyl-2-(pyridin-4-yl)-6a,7,8,10a-tetrahydro-6H-benzo[c]chromen-1-ol] | 100 to 490 nM | – | – | 100 to 490 nM | 1.77 fold | –
5 | CCCCCc1cc2c(c(O)c1-c1cncs1)[C@@H]1C=C(C)CC[C@H]1C(C)(C)O2 [Compound 18b] | > 1000 nM | – | – | > 1000 nM | 1.00 fold | 1.00 fold
6 | CCCCCc1cc2c(c(O)c1-c1ccco1)[C@@H]1C=C(C)CC[C@H]1C(C)(C)O2 [Compound 15b, 2-(furan-2-yl)-6,6,9-trimethyl-3-pentyl-6a,7,8,10a-tetrahydro-6H-benzo[c]chromen-1-ol] | < 100 nM | – | – | < 100 nM | 1.00 fold | 1.00 fold
7 | CCCCCc1cc2c(c(O)c1-c1cn[nH]c1)[C@@H]1C=C(C)CC[C@H]1C(C)(C)O2 [Compound 35b, 6,6,9-trimethyl-3-pentyl-2-(1H-pyrazol-4-yl)-6a,7,8,10a-tetrahydro-6H-benzo[c]chromen-1-ol] | > 1000 nM | – | – | 500 to 990 nM | 2.64 fold | –
8 | CCCCCc1cc2c(c(O)c1-c1ccsc1)[C@@H]1C=C(C)CC[C@H]1C(C)(C)O2 [Compound 17b, 6,6,9-trimethyl-3-pentyl-2-(thiophen-3-yl)-6a,7,8,10a-tetrahydro-6H-benzo[c]chromen-1-ol] | 100 to 490 nM | – | – | < 100 nM | 3.43 fold | –
9 | CCCCCc1cc2c(c(O)c1-c1ccnn1C)[C@@H]1C=C(C)CC[C@H]1C(C)(C)O2 [Compound 33b, 6,6,9-trimethyl-2-(1-methyl-1H-pyrazol-5-yl)-3-pentyl-6a,7,8,10a-tetrahydro-6H-benzo[c]chromen-1-ol] | 100 to 490 nM | – | – | 100 to 490 nM | 1.61 fold | –
10 | CCCCCc1cc2c(c(O)c1-c1cc3ccccc3o1)[C@@H]1C=C(C)CC[C@H]1C(C)(C)O2 [Compound 34b, 2-(benzofuran-2-yl)-6,6,9-trimethyl-3-pentyl-6a,7,8,10a-tetrahydro-6H-benzo[c]chromen-1-ol] | 500 to 990 nM | – | – | 100 to 490 nM | 4.41 fold | –
